What all share (type): in vivo
Experiment [1] relates to myelin-associated glycoprotein (MAG). Briefly: myelin gene expression in brain samples (QuantSeq 3′ mRNA-Seq), MAG. To be noted: mice receiving milk without 6′SL, fold change relative to control mice receiving milk with 6′SL; FIG. 4. From the text:
(§1) Adult wild-type (WT) B6.129 and heterozygous (HZ) B6.129-St6gal1^tm2Jxm breeding pairs (four males and four females and three males and four females, respectively) were purchased from a commercial breeder (The Jackson Laboratory). Upon arrival, same-sex mice were housed in same-sex groups of 2-3 in type-1 polycarbonate cages (33.0×13.0×14.0 cm) equipped with sawdust bedding, an enrichment bag (Mucedola, Settimo Milanese, Italy), metal top and ad libitum water and food pellets (Mucedola, Settimo Milanese, Italy). Mice were maintained on a reversed 12-h-light-dark cycle (light on at 7:00 PM) in an air-conditioned room (temperature 21±1C and relative humidity 60±10%). Two weeks after arrival, breeding triads (one male, two females) were formed. After two weeks of mating, male mice were removed and females were housed individually in standard type-1 cages. […]
(§2) Total RNA is extracted using the Agencourt RNAdvance Tissue Kit (Beckman Coulter): Lysis was done in 450 μL. […] Elution volume 50 μL Quantification is performed using Quant It Ribogreen assay (Life Technologies) QC assessment is performed using Standard sensitivity RNA kit on Fragment Analyzer 96 (Agilent). […]
(§3) Library generation starts with oligodT priming containing the Illumina-specific Read 2 linker sequence. […] The random primer contains the Illumina-specific Read 1linker sequence. […]

In experiment [2] the test system is genes related to myelination; myelination and myelin sheath pathway. The experiment can be described thus: expression of myelination-related genes and KEGG pathways in brain samples. To be noted: mice receiving milk without 6′SL.
From the text: Adult wild-type (WT) B6.129 and heterozygous (HZ) B6.129-St6gal1^tm2Jxm breeding pairs (four males and four females and three males and four females, respectively) were purchased from a commercial breeder (The Jackson Laboratory). Upon arrival, same-sex mice were housed in same-sex groups of 2-3 in type-1 polycarbonate cages (33.0×13.0×14.0 cm) equipped with sawdust bedding, an enrichment bag (Mucedola, Settimo Milanese, Italy), metal top and ad libitum water and food pellets (Mucedola, Settimo Milanese, Italy). Mice were maintained on a reversed 12-h-light-dark cycle (light on at 7:00 PM) in an air-conditioned room (temperature 21±1C and relative humidity 60±10%). Two weeks after arrival, breeding triads (one male, two females) were formed. After two weeks of mating, male mice were removed and females were housed individually in standard type-1 cages. Females were checked daily for delivery and the day in which they gave birth was designated as postnatal day (PND) 0. Apart from cage cleaning once a week, dams and their offspring were kept undisturbed until weaning (on PND 25). At weaning, male and female mice were separated and located in same-sex same-litter cages; additionally, male mice were marked through ear clipping and the ear tissue removed through this procedure was used for genotyping. Homozygous knock-out (KO) and WT mice were then used for the experiments.
Fourteen wild type (WT) and 14 St6Gal1 Homozygous (hereafter KO) female mice have been mated with seven WT and seven KO male mice respectively. Out of this batch, 10 WT and 10 KO dams gave birth to a viable offspring. […]
as §2, §3

The subject of experiment [3] is myelin basic protein (MBP). Briefly: myelin gene expression in brain samples (QuantSeq 3′ mRNA-Seq), MBP. To be noted: mice receiving milk without 6′SL, fold change relative to control mice receiving milk with 6′SL; FIG. 4.
From the text: as §1, §2, §3

SMILES strings stand for the structures.

As to `CC(=O)N[C@H]1[C@H]([C@H](O)[C@H](O)CO)O[C@@](OC[C@H]2O[C@@H](O[C@H]3[C@H](O)[C@@H](O)C(O)O[C@@H]3CO)[C@H](O)[C@@H](O)[C@H]2O)(C(=O)O)C[C@@H]1O` (stereo partly drawn) [6′SL, (6R)-5-Acetamido-3,5-dideoxy-6-[(1R,2R)-1,2,3-trihydroxypropyl]-β-L-threo-hex-2-ulopyranonosyl-(2->6)-β-D-galactopyranosyl-(1->4)-D-glucopyranose], the “reduction of the expression of myelin-associated glycoprotein (MAG)” value in experiment [1] is given as 50%. The “expression of multiple genes related to myelination” value in experiment [2] (adulthood, and hippocampus at both ages) is “neither observed”; in experiment [2] (prefrontal cortex during early life), “reduced”. Moreover, in experiment [2] (only in prefrontal cortex during early life), the “KEGG myelination and myelin sheath pathway” value was “down-regulated”. Further, the “reduction of the expression of myelin basic protein (MBP)” value in experiment [3] is listed as 50%.

The record behind these values is patent US20220225627A1, “A NUTRITIONAL COMPOSITION FOR USE TO ENHANCE EXECUTIVE FUNCTION” (SOCIETE DES PRODUITS NESTLE S.A., priority 2019, published 2022).
